PubChem BioAssay (NCI)
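Briefly, cells in 96-well plates were exposed to five compound concentrations for 48 h, and endpoints were estimated by linear interpolation. Here, GI50 denotes the concentration required for 50% inhibition of growth. At the TGI there is no net growth.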

Tests used:
Experiment in all cases: DTP human tumour cell line panel, 48 h
MDA-MB-435 = test system: MDA-MB-435
M14 melanoma = test system: M14 melanoma
A498 renal = test system: A498 renal
SNB-19 CNS = test system: SNB-19 CNS
SR leukemia = test system: SR leukemia
OVCAR-4 ovarian = test system: OVCAR-4 ovarian
NCI-H522 lung = test system: NCI-H522 lung
A549 NSCLC = test system: A549 NSCLC
HCC-2998 colon = test system: HCC-2998 colon
UACC-62 melanoma = test system: UACC-62 melanoma
UACC-257 melanoma = test system: UACC-257 melanoma
NCI-H226 lung = test system: NCI-H226 lung
PC-3 prostate = test system: PC-3 prostate
SK-MEL-2 melanoma = test system: SK-MEL-2 melanoma
SF-268 CNS = test system: SF-268 CNS
HOP-92 NSCLC = test system: HOP-92 NSCLC
OVCAR-8 ovarian = test system: OVCAR-8 ovarian
CAKI-1 renal = test system: CAKI-1 renal
RXF 393 renal = test system: RXF 393 renal
SK-MEL-28 melanoma = test system: SK-MEL-28 melanoma
BT-549 breast = test system: BT-549 breast
DU-145 prostate = test system: DU-145 prostate
SF-295 CNS = test system: SF-295 CNS
MALME-3M melanoma = test system: MALME-3M melanoma
SF-539 CNS = test system: SF-539 CNS
UO-31 renal = test system: UO-31 renal
SN12C renal = test system: SN12C renal
ACHN renal = test system: ACHN renal
RPMI-8226 leukemia = test system: RPMI-8226 leukemia
HL-60(TB) leukemia = test system: HL-60(TB) leukemia
HCT-15 colon = test system: HCT-15 colon
NCI-H460 lung = test system: NCI-H460 lung
COLO 205 colon = test system: COLO 205 colon
NCI/ADR-RES ovarian = test system: NCI/ADR-RES ovarian
MDA-MB-231 breast = test system: MDA-MB-231 breast
TK-10 renal = test system: TK-10 renal
CCRF-CEM leukemia = test system: CCRF-CEM leukemia
MOLT-4 leukemia = test system: MOLT-4 leukemia
T-47D breast = test system: T-47D breast
IGROV1 ovarian = test system: IGROV1 ovarian
SNB-75 CNS = test system: SNB-75 CNS
OVCAR-5 ovarian = test system: OVCAR-5 ovarian
HOP-62 NSCLC = test system: HOP-62 NSCLC
HT29 colon = test system: HT29 colon
SK-MEL-5 melanoma = test system: SK-MEL-5 melanoma
U251 CNS = test system: U251 CNS
SK-OV-3 ovarian = test system: SK-OV-3 ovarian
SW-620 colon = test system: SW-620 colon
HCT-116 colon = test system: HCT-116 colon
HS 578T breast = test system: HS 578T breast
KM12 colon = test system: KM12 colon
OVCAR-3 ovarian = test system: OVCAR-3 ovarian
LOX IMVI melanoma = test system: LOX IMVI melanoma
EKVX NSCLC = test system: EKVX NSCLC
NCI-H23 lung = test system: NCI-H23 lung
786-0 renal = test system: 786-0 renal
MCF7 breast = test system: MCF7 breast

Cc1ccc2cc3c(N)c4c(C)ccc(C)c4nc3nc2c1
GI50 (MDA-MB-435): 10.9 µM | TGI (MDA-MB-435): 23.4 µM | GI50 (M14 melanoma): 12.4 µM | TGI (M14 melanoma): 26.7 µM | GI50 (A498 renal): 11.9 µM | TGI (A498 renal): 25.1 µM | GI50 (SNB-19 CNS): 7.02 µM | TGI (SNB-19 CNS): 23.8 µM | GI50 (SR leukemia): 2.3 µM | TGI (SR leukemia): 7.33 µM | GI50 (OVCAR-4 ovarian): 3.79 µM | TGI (OVCAR-4 ovarian): 14.8 µM | GI50 (NCI-H522 lung): 3.74 µM | TGI (NCI-H522 lung): 20.7 µM | GI50 (A549 NSCLC): 1.85 µM | TGI (A549 NSCLC): 3.44 µM | GI50 (HCC-2998 colon): 4.26 µM | TGI (HCC-2998 colon): 14.8 µM | GI50 (UACC-62 melanoma): 7.72 µM | TGI (UACC-62 melanoma): 22 µM | GI50 (UACC-257 melanoma): 14.2 µM | TGI (UACC-257 melanoma): 28.6 µM | GI50 (NCI-H226 lung): 13.1 µM | TGI (NCI-H226 lung): 29.5 µM | GI50 (PC-3 prostate): 6.89 µM | TGI (PC-3 prostate): 21.6 µM | GI50 (SK-MEL-2 melanoma): 14 µM | TGI (SK-MEL-2 melanoma): 29.3 µM | GI50 (SF-268 CNS): 11.8 µM | TGI (SF-268 CNS): 25.8 µM | GI50 (HOP-92 NSCLC): 1.87 µM | TGI (HOP-92 NSCLC): 16.5 µM | GI50 (OVCAR-8 ovarian): 5.64 µM | TGI (OVCAR-8 ovarian): 23.5 µM | GI50 (CAKI-1 renal): 10.2 µM | TGI (CAKI-1 renal): 22 µM | GI50 (RXF 393 renal): 1.8 µM | TGI (RXF 393 renal): 3.62 µM | GI50 (SK-MEL-28 melanoma): 13.7 µM | TGI (SK-MEL-28 melanoma): 28.5 µM | GI50 (BT-549 breast): 14.8 µM | TGI (BT-549 breast): 29.7 µM | GI50 (DU-145 prostate): 5.82 µM | TGI (DU-145 prostate): 18.6 µM | GI50 (SF-295 CNS): 1.66 µM | TGI (SF-295 CNS): 3.05 µM | GI50 (MALME-3M melanoma): 17.7 µM | TGI (MALME-3M melanoma): 36.1 µM | GI50 (SF-539 CNS): 7.97 µM | TGI (SF-539 CNS): 23.1 µM | GI50 (UO-31 renal): 3.6 µM | TGI (UO-31 renal): 19.6 µM | GI50 (SN12C renal): 6.75 µM | TGI (SN12C renal): 21 µM | GI50 (ACHN renal): 2.68 µM | TGI (ACHN renal): 13.2 µM | GI50 (RPMI-8226 leukemia): 2.02 µM | TGI (RPMI-8226 leukemia): 5.27 µM | GI50 (HL-60(TB) leukemia): 18.7 µM | TGI (HL-60(TB) leukemia): 40.8 µM | GI50 (HCT-15 colon): 1.33 µM | TGI (HCT-15 colon): 10.3 µM | GI50 (NCI-H460 lung): 1.84 µM | TGI (NCI-H460 lung): 3.77 µM | GI50 (COLO 205 colon): 5.77 µM | TGI (COLO 205 colon): 20 µM | GI50 (NCI/ADR-RES ovarian): 2.95 µM | TGI (NCI/ADR-RES ovarian): 16.7 µM | GI50 (MDA-MB-231 breast): 3.17 µM | TGI (MDA-MB-231 breast): 20.4 µM | GI50 (TK-10 renal): 12.2 µM | TGI (TK-10 renal): 25.5 µM | GI50 (CCRF-CEM leukemia): 4.04 µM | TGI (CCRF-CEM leukemia): 36.8 µM | GI50 (MOLT-4 leukemia): 3.49 µM | TGI (MOLT-4 leukemia): 21.7 µM | GI50 (T-47D breast): 2.14 µM | TGI (T-47D breast): 6.1 µM | GI50 (IGROV1 ovarian): 6.73 µM | TGI (IGROV1 ovarian): 22.3 µM | GI50 (SNB-75 CNS): 5.97 µM | TGI (SNB-75 CNS): 20.7 µM | GI50 (OVCAR-5 ovarian): 1.99 µM | TGI (OVCAR-5 ovarian): 5.05 µM | GI50 (HOP-62 NSCLC): 9.79 µM | TGI (HOP-62 NSCLC): 25.5 µM | GI50 (HT29 colon): 2.89 µM | TGI (HT29 colon): 12.9 µM | GI50 (SK-MEL-5 melanoma): 8.14 µM | TGI (SK-MEL-5 melanoma): 21 µM | GI50 (U251 CNS): 4.58 µM | TGI (U251 CNS): 18.1 µM | GI50 (SK-OV-3 ovarian): 11.4 µM | TGI (SK-OV-3 ovarian): 24 µM | GI50 (SW-620 colon): 2.81 µM | TGI (SW-620 colon): 15.3 µM | GI50 (HCT-116 colon): 1.68 µM | TGI (HCT-116 colon): 3.27 µM | GI50 (HS 578T breast): 12.8 µM | TGI (HS 578T breast): 34.5 µM | GI50 (KM12 colon): 2.12 µM | TGI (KM12 colon): 16.9 µM | GI50 (OVCAR-3 ovarian): 6.12 µM | TGI (OVCAR-3 ovarian): 21.1 µM | GI50 (LOX IMVI melanoma): 1.65 µM | TGI (LOX IMVI melanoma): 3.4 µM | GI50 (EKVX NSCLC): 8.04 µM | TGI (EKVX NSCLC): 21.4 µM | GI50 (NCI-H23 lung): 11.6 µM | TGI (NCI-H23 lung): 28.6 µM | GI50 (786-0 renal): 6.72 µM | TGI (786-0 renal): 20.5 µM | GI50 (MCF7 breast): 1.44 µM | TGI (MCF7 breast): 2.98 µM
